In patent US20230330122A1, “PHARMACOLOGICAL TREATMENT OF AUTISM SPECTRUM DISORDER” (priority 2022, published 2023):

Key:
OCD mouse models = details: 3 different mouse models; cited from earlier work
[1] = system: SHANK3 autism mouse model; assay: Compulsive behavior in SHANK3 autism mouse model; format: in vivo
Excerpt: FIGS. 5 and 6 present data collected by experiments using a SH3 And Multiple Ankyrin Repeat Domains 3 (SHANK3) autism mouse model. SHANK3 was the first to be associated with autism which was used by Joao Peca et al. (2011) to create the mouse model currently in use. […] The SHANK family of proteins has been strongly implicated as a contributing factor in autism in certain individuals and sits at the core of the alleged autistic pathway. The SHANK proteins lie at the heart of this synaptic map of autistic pathology, binding to Metabotropic Glutamate Receptors (mGluRs) indirectly, via the Homer family of adaptor proteins, and to both N-methyl-D-aspartate receptors (NMDARS) and Neuroligins (NLGNs) indirectly, via guanylate kinase-associated protein (GKAP) and Postsynaptic density protein 95 (PSD-95). They also link to the actin cytoskeleton, providing a multivalent scaffold upon which to build the postsynaptic density.
Compulsive behavior was used as a readout to evaluate the effectiveness of autistic symptom amelioration through NMN treatment. […] A baseline was recorded for both groups. The effect of a placebo was evaluated for both groups. NMN was administered to subjects of each group and the results were recorded. The results of treatment with NMN over 1 week were also recorded.

| Structure (SMILES) | treating OCD (OCD mouse models) | compulsive behavior in seconds observed over a 5-minute period ([1]; SHANK3 autistic group and control group, NMN administered, also NMN over 1 week, FIG. 5) | safety of treatment ([1]; SHANK3 mouse model, NMN treatment) |
| --- | --- | --- | --- |
| O=C(O)C(Cc1c[nH]c2ccccc12)N1C(=O)c2ccccc2C1=O (stereo not drawn) [RG108] | successful in treating OCD | – | – |
| NC(=O)c1ccc[n+]([C@@H]2O[C@H](COP(=O)([O-])O)[C@@H](O)[C@H]2O)c1 [NMN, nicotinamide mononucleotide] | – | significantly reducing the exhibition of compulsive behavior | SAFE |
